Assay [1] relates to human breast cancer cell line MDA-MB-231. The assay can be described thus: Cancer cell proliferation inhibitory activity evaluation 1 (CCK-8), MDA-MB-231. It counts as cell-based. Here is the method: (§1) In order to identify whether the compound has anticancer activity, the human breast cancer cell line MDA-MB-231, the colorectal cancer cell line HT-29, the acute myeloid leukemia cell line U937, and the chronic myeloid leukemia cell line K562 were used. The cell line was cultured using RPMI-1640 medium containing 10% fetal bovine serum. Welgene products were used as the medium, and hyclone products were used for fetal bovine serum, and 1% of antibiotics for cell culture from Gibco were used as the culture medium.

Assay [2] deals with acute myeloid leukemia cell line U937. The assay can be described thus: Cancer cell proliferation inhibitory activity evaluation 1 (CCK-8), U937. It counts as cell-based. Particulars: Homo sapiens, read-out: Cancer cell proliferation inhibitory activity U937. Here is the method: as §1
Assay [3] concerns colorectal cancer cell line HT-29. The assay can be described thus: Cancer cell proliferation inhibitory activity evaluation 1 (CCK-8), HT-29. It counts as cell-based. To be noted: Homo sapiens, read-out: Cancer cell proliferation inhibitory activity HT29. The method, then: as §1
Assay [4] concerns chronic myeloid leukemia cell line K562. As to the kind of experiment: Cancer cell proliferation inhibitory activity evaluation 1 (CCK-8), K562. It counts as cell-based. Particulars: Homo sapiens, read-out: Cancer cell proliferation inhibitory activity K562. Here is the method:
as §1

Assay [5] deals with acute myeloid leukemia cell line U937. The assay can be described thus: Cancer cell proliferation inhibitory activity evaluation 2 (CCK-8), U937. To be noted: Homo sapiens, read-out: Cancer cell proliferation inhibitory activity U937. The assay is classed as cell-based.
Assay [6] concerns acute lymphoblastic leukemia cell line Jurkat. The assay can be described thus: Cancer cell proliferation inhibitory activity evaluation 2 (CCK-8), Jurkat. Particulars: Homo sapiens. It counts as cell-based.
The subject of assay [7] is gastric cancer cell line AGS. The assay can be described thus: Cancer cell proliferation inhibitory activity evaluation 2 (CCK-8), AGS. It counts as cell-based. Particulars: Homo sapiens, read-out: Cancer cell proliferation inhibitory activity AGS.
A further assay concerns the target MLK3 (Homo sapiens (Human), UniProt Q16584). As to the kind of experiment: Evaluation of inhibitory activity of enzyme units, MLK3 ([γ-33P]-ATP filter assay).
The mark [8] stands for this setting: MDA-MB-231, 10 μM, 72 hours, CCK-8, read-out: Cancer cell proliferation inhibitory activity MDAMB231.
Where [9] appears, read: U-937, 10 μM, 72 hours, CCK-8 (Table 2).
Where [10] appears, read: U-937, 10 μM, 72 hours, CCK-8 (Table 3).
Where [11] appears, read: 10 μM, 72 hours, CCK-8, read-out: Cancer cell proliferation inhibitory activity Jurkat.

Experimental findings from US12545673B2, “Imidazopyridine derivative and pharmaceutical composition comprising same as active ingredient” (TSD LIFE SCIENCES CO., LTD., priority 2019, dated 2026) are described below.

Each structure is given as a SMILES string. Like-named read-outs stand apart in the source and are kept apart here.

Sequence of MLK3 (Q16584 whole entry, looked up): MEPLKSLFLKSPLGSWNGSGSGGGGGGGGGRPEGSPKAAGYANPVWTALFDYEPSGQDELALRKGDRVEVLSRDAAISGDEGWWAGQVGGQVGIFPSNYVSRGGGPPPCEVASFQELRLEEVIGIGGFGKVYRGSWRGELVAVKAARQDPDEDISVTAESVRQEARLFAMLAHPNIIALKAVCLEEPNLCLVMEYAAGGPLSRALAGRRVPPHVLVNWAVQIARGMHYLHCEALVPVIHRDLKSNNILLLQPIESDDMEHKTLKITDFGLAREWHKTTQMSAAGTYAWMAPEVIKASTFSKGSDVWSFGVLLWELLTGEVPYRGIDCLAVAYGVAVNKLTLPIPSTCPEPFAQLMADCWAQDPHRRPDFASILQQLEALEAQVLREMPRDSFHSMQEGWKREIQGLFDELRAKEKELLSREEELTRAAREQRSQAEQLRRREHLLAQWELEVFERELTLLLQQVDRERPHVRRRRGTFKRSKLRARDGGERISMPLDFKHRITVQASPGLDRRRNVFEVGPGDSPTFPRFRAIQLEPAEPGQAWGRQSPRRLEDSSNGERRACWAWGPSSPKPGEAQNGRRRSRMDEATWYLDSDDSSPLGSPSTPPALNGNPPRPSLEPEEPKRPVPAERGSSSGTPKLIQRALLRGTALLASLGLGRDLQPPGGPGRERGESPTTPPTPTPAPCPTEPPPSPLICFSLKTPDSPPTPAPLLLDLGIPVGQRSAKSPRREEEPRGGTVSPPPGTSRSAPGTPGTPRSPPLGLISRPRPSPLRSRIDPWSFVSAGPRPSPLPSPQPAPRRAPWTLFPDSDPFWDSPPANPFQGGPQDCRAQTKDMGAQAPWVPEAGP

On to `CCS(=O)(=O)N1CC[C@H](Nc2c(Br)cnc3[nH]c(-c4cc(C)n(-c5cc(Cl)ccc5Cl)c4C)nc23)C1` [Example 14, 6-bromo-2-(1-(2,5-dichlorophenyl)-2,5-dimethyl-1H-pyrrol-3-yl)-N—((S)-1-(ethylsulfonyl)pyrrolidine-3-yl)-3H-imidazo[4,5-b]pyridine-7-amine], for which the inhibition at 10 µM is under 10% in assay [1] (setting [8]); 10 to 50% in assay [2] (setting [9]); 10 to 50% in assay [3] (HT-29, 10 μM, 72 hours, CCK-8); under 10% in assay [4] (K562, 10 μM, 72 hours, CCK-8); 10 to 50% in assay [5] (setting [10]); 10 to 50% in assay [6] (setting [11]). Besides, the inhibition at 10 µM in assay [7] (10 μM, 72 hours, CCK-8) is 10 to 50%. The molecule further came in with an IC50 on MLK3 of 17 nM.

As for `Cc1cc(-c2nc3c(Nc4cccc(S(N)(=O)=O)c4)c(Br)cnc3[nH]2)c(C)n1-c1cc(Cl)ccc1Cl` [Example 35, 3-((6-bromo-2-(1-(2,5-dichlorophenyl)-2,5-dimethyl-1H-pyrrol-3-yl)-3H-imidazo[4,5-b]pyridine-7-yl)amino)benzenesulfonamide], the inhibition at 10 µM in assay [1] (setting [8]) was 10 to 50%; in assay [2] (setting [9]), 10 to 50%; in assay [3] (HT-29, 10 μM, 72 hours, CCK-8), over 50%; in assay [4] (K562, 10 μM, 72 hours, CCK-8) it was under 10%; in assay [5] (setting [10]), 10 to 50%; in assay [6] (setting [11]), 10 to 50%. In assay [7] (10 μM, 72 hours, CCK-8), the inhibition at 10 µM was in the range of 10 to 50%. Moreover, the IC50 on MLK3 was determined as 46 nM.

With `CCS(=O)(=O)N1CC[C@H](Nc2c(Br)cnc3[nH]c(-c4cc(C)n(-c5ccccc5Cl)c4C)nc23)C1` [Example 16, 6-bromo-2-(1-(2-chlorophenyl)-2,5-dimethyl-1H-pyrrol-3-yl)-N—((S)-1-(ethylsulfonyl)pyrrolidine-3-yl)-3H-imidazo[4,5-b]pyridine-7-amine], the inhibition at 10 µM in assay [1] (setting [8]) was 10 to 50%; in assay [2] (setting [9]), over 50%; in assay [3] (HT-29, 10 μM, 72 hours, CCK-8), 10 to 50%; in assay [4] (K562, 10 μM, 72 hours, CCK-8), over 50%; in assay [5] (setting [10]), under 10%; in assay [6] (setting [11]), 10 to 50%. The inhibition at 10 µM in assay [7] (10 μM, 72 hours, CCK-8) was 10 to 50%. This molecule displayed a concentration for half-maximal inhibition (IC50) at MLK3 of 11 nM.

As for `Cc1cc(-c2nc3c(Nc4cccc(S(N)(=O)=O)c4)c(Br)cnc3[nH]2)c(C)n1-c1ccc(N2CCOCC2)cc1` [Example 40, 3-((6-bromo-2-(2,5-dimethyl-1-(4-morpholinophenyl)-1H-pyrrol-3-yl)-3H-imidazo[4,5-b]pyridine-7-yl)amino)benzenesulfonamide], the inhibition at 10 µM is 10 to 50% in assay [1] (setting [8]); over 50% in assay [2] (setting [9]); over 50% in assay [3] (HT-29, 10 μM, 72 hours, CCK-8); 10 to 50% in assay [4] (K562, 10 μM, 72 hours, CCK-8); 10 to 50% in assay [5] (setting [10]); over 50% in assay [6] (setting [11]). Further, the inhibition at 10 µM in assay [7] (10 μM, 72 hours, CCK-8) was 10 to 50%. Also, the IC50 at MLK3 (read-out: IC50(nM) MLK3) is 68 nM.

Regarding `Cc1cc(-c2nc3c(Nc4cccc(S(N)(=O)=O)c4)c(Br)cnc3[nH]2)c(C)n1-c1ccccc1Cl` [Example 31, 3-((6-bromo-2-(1-(2-chlorophenyl)-2,5-dimethyl-1H-pyrrol-3-yl)-3H-imidazo[4,5-b]pyridine-7-yl)amino)benzenesulfonamide], the inhibition at 10 µM was under 10% in assay [1] (setting [8]); 10 to 50% in assay [2] (setting [9]); over 50% in assay [3] (HT-29, 10 μM, 72 hours, CCK-8); 10 to 50% in assay [4] (K562, 10 μM, 72 hours, CCK-8); 10 to 50% in assay [5] (setting [10]); 10 to 50% in assay [6] (setting [11]). In addition, the inhibition at 10 µM in assay [7] (10 μM, 72 hours, CCK-8) fell in the range of 10 to 50%. Moreover, the IC50 at MLK3 (read-out: IC50(nM) MLK3) was found to be 35 nM.

As to `Cc1cc(-c2nc3ncc(Br)c(Nc4cccc(S(N)(=O)=O)c4)c3[nH]2)c(C)n1-c1cccc(OCCN2CCOCC2)c1` [Example 38, 3-((6-bromo-2-(2,5-dimethyl-1-(3-(2-morpholinoethoxy)phenyl)-1H-pyrrol-3-yl)-1H-imidazo[4,5-b]pyridine-7-yl)amino)benzenesulfonamide], the inhibition at 10 µM in assay [1] (setting [8]) was 10 to 50%; in assay [2] (setting [9]) it was over 50%; in assay [3] (HT-29, 10 μM, 72 hours, CCK-8), over 50%; in assay [4] (K562, 10 μM, 72 hours, CCK-8), over 50%; in assay [5] (setting [10]), 10 to 50%; in assay [6] (setting [11]), over 50%. The inhibition at 10 µM in assay [7] (10 μM, 72 hours, CCK-8) was over 50%. For the same molecule, at MLK3 (read-out: IC50(nM) MLK3), the IC50 was 52 nM.

Take `CCS(=O)(=O)N1CC[C@H](Nc2c(Br)cnc3[nH]c(-c4cc(C)n(-c5ccc(N6CCOCC6)cc5)c4C)nc23)C1` [Example 1, (S)-6-bromo-2-(2,5-dimethyl-1-(4-morpholinophenyl)-1H-pyrrol-3-yl)-N-(1-(ethylsulfonyl)pyrrolidine-3-yl)-3H-imidazo[4,5-b]pyridine-7-amine]: the inhibition at 10 µM in assay [1] (setting [8]) is 10 to 50%; in assay [2] (setting [9]), 10 to 50%; in assay [3] (HT-29, 10 μM, 72 hours, CCK-8), 10 to 50%; in assay [4] (K562, 10 μM, 72 hours, CCK-8) it was under 10%; in assay [5] (setting [10]), 10 to 50%; in assay [6] (setting [11]) it was 10 to 50%. Also, in assay [7] (10 μM, 72 hours, CCK-8), the inhibition at 10 µM lay in the range of 10 to 50%. Further, on MLK3, inhibition was half-maximal at 4 nM (IC50).

In the case of `Cc1cc(-c2nc3ncc(Br)c(Nc4cccc(S(N)(=O)=O)c4)c3[nH]2)c(C)n1-c1ccc(OCCN2CCOCC2)cc1` [Example 39, 3-((6-bromo-2-(2,5-dimethyl-1-(4-(2-morpholinoethoxy)phenyl)-1H-pyrrol-3-yl)-1H-imidazo[4,5-b]pyridine-7-yl)amino)benzenesulfonamide], the inhibition at 10 µM in assay [1] (setting [8]) is 10 to 50%; in assay [2] (setting [9]) it was under 10%; in assay [3] (HT-29, 10 μM, 72 hours, CCK-8), 10 to 50%; in assay [4] (K562, 10 μM, 72 hours, CCK-8), 10 to 50%; in assay [5] (setting [10]), 10 to 50%; in assay [6] (setting [11]), over 50%. Moreover, in assay [7] (10 μM, 72 hours, CCK-8), the inhibition at 10 µM was over 50%. For the same molecule, the IC50 at MLK3 (read-out: IC50(nM) MLK3) was 72 nM.

For the molecule `Cc1cc(-c2nc3c(Nc4cccc(S(N)(=O)=O)c4)c(Br)cnc3[nH]2)c(C)n1-c1cccc(N2CCOCC2)c1` [Example 37, 3-((6-bromo-2-(2,5-dimethyl-1-(3-morpholinophenyl)-1H-pyrrol-3-yl)-3H-imidazo[4,5-b]pyridine-7-yl)amino)benzenesulfonamide], the inhibition at 10 µM in assay [1] (setting [8]) is over 50%; in assay [2] (setting [9]), 10 to 50%; in assay [3] (HT-29, 10 μM, 72 hours, CCK-8), over 50%; in assay [4] (K562, 10 μM, 72 hours, CCK-8), under 10%; in assay [5] (setting [10]), 10 to 50%; in assay [6] (setting [11]) it was 10 to 50%. Also, in assay [7] (10 μM, 72 hours, CCK-8), the inhibition at 10 µM lay within 10 to 50%. For the same molecule, the concentration for half-maximal inhibition (IC50) at MLK3 (read-out: IC50(nM) MLK3) was found to be 47 nM.

As to `CCS(=O)(=O)N1CC[C@H](Nc2c(Br)cnc3[nH]c(-c4cc(C)n(-c5ccc(Cl)c(Cl)c5)c4C)nc23)C1` [Example 15, (S)-6-bromo-2-(1-(3,4-dichlorophenyl)-2,5-dimethyl-1H-pyrrol-3-yl)-N-(1-(ethylsulfonyl)pyrrolidine-3-yl)-3H-imidazo[4,5-b]pyridine-7-amine], the inhibition at 10 µM in assay [1] (MDA-MB-231, 72 h, read-out: Cancer cell proliferation inhibitory activity MDAMB231) is over 50%; in assay [2] (U-937, 72 h), 10 to 50%; in assay [3] (HT-29, 72 h), under 10%; in assay [4] (K562, 72 h), 10 to 50%; in assay [5] (U-937, 72 h), 10 to 50%; in assay [6] (72 h, read-out: Cancer cell proliferation inhibitory activity Jurkat) it was under 10%. The inhibition at 10 µM in assay [7] (72 h) is 10 to 50%. Also, the half-inhibitory concentration (IC50) at MLK3 (read-out: IC50(nM) MLK3) worked out at 34 nM.
